Reference: patent US5462848A, “Color photographic materials including magenta coupler, inhibitor-releasing coupler and carbonamide compound, and methods” (Eastman Kodak Company, priority 1993, dated 1995)

Experiment: Potentiometric titration of dispersion pKa of couplers as aqueous dispersions
Format: physicochemical
Conditions: 0.50M potassium counter ion
From the text: Preferred two-equivalent magenta dye-forming couplers for the practice of this invention include those that have pKa values of less than 10.0 when dispersed together with a coupler solvent. Potentiometric titrations were used to measure pKa values for some of the preferred couplers of the invention as aqueous dispersions. In these two-phase mixtures, the term pKa denotes the aqueous buffer pH at which half of the coupler in the oil phase is ionized or ion paired. Table I lists dispersion pKa values measured with 0.50M potassium counter ion.

[1] = coupler solvent S2, coupler:solvent 1:2, aqueous dispersion
[2] = coupler solvent C5, coupler:solvent 1:1, aqueous dispersion
[3] = coupler solvent S1, coupler:solvent 1:1, aqueous dispersion

| Structure (SMILES) | pKa (0.5M K+) [1] | pKa (0.5M K+) [2] | pKa (0.5M K+) [3] | pKa (0.5M K+) (coupler solvent C1, coupler:solvent 1:2, aqueous dispersion) |
| --- | --- | --- | --- | --- |
| CCCCCCCCCCCCNS(=O)(=O)c1ccc(NC2=NN(c3c(Cl)cc(Cl)cc3Cl)C(=O)C2Sc2cc(C(C)(C)CC(C)(C)C)ccc2OCCCC)c(Cl)c1 (stereo not drawn) [M1] | 8.5 |  |  |  |
| CCCCCCCCCCCCCC(=O)Nc1ccc(Cl)c(NC2=NN(c3c(Cl)cc(Cl)cc3Cl)C(=O)C2Sc2ccccc2NC(=O)C(CC)Oc2ccc(C(C)(C)CC)cc2C(C)(C)CC)c1 (stereo not drawn) [M3] |  | 8.2 | 7.9 |  |
| CCCCCCCCCCCCNS(=O)(=O)c1ccc(NC2=NN(c3c(Cl)cc(Cl)cc3Cl)C(=O)C2Sc2ccccc2NC(=O)C(CC)Oc2ccc(C(C)(C)CC)cc2C(C)(C)CC)c(Cl)c1 (stereo not drawn) [M4] |  | 8.0 | 7.6 |  |
| CCCCCCCCCCCCCCCC(=O)Nc1ccc(Cl)c(NC2=NN(c3c(Cl)c(Cl)c(Cl)c(Cl)c3Cl)C(=O)C2Sc2ccccc2NC(=O)OCc2ccccc2)c1 (stereo not drawn) [M7] | 7.5 |  |  |  |
| CCCCCCCCCCCCNS(=O)(=O)c1ccc(NC2=NN(c3c(Cl)cc(Cl)cc3Cl)C(=O)C2Sc2ccccc2NC(=O)CCCCCCCCCCC)c(Cl)c1 (stereo not drawn) [M8] | 7.9 |  |  |  |
| CCCCCCCCCCCCCCCCCCNS(=O)(=O)c1ccc(Cl)c(NC2=NN(c3c(Cl)cc(Cl)cc3Cl)C(=O)C2Sc2cc(C(C)C)ccc2C(C)C)c1 (stereo not drawn) [M20] | 8.4 |  |  | 8.9 |
